# Measurements published in PubChem BioAssay (NCI).
# “And” between values parts separate entries of the source, which are not always exact repeats. Equal entries are not always repeated.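 All cell lines were grown in 96-well plates and treated with compound for 48 hours. GI50 is the concentration that inhibits growth by half. At the TGI there is no net growth.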
# Columns and labels:
# Assay in all cases: DTP human tumour cell line panel, 48 h
# [1] = system: CCRF-CEM leukemia
# [2] = system: DU-145 prostate
# [3] = system: MDA-MB-435
# [4] = system: MOLT-4 leukemia
# [5] = system: NCI-H522 lung
# [6] = system: NCI/ADR-RES ovarian
# [7] = system: OVCAR-5 ovarian
# [8] = system: RPMI-8226 leukemia
# [9] = system: SN12C renal
# [10] = system: M14 melanoma
SMILES,GI50 [1],TGI [1] [µM],GI50 [2],TGI [2] [µM],GI50 [3] [µM],TGI [3],GI50 [4],TGI [4] [µM],GI50 [5] [µM],TGI [5] [µM],GI50 [6],TGI [6] [µM],GI50 [7] [µM],TGI [7] [µM],GI50 [8],TGI [8],GI50 [9],TGI [9] [µM],GI50 [10],TGI [10] [µM]
S=C(N/N=C/c1ccccn1)Nc1ccccn1,0.358 µM,17.5,2.58 µM,> 100,3.86,> 100 µM,0.467 µM,> 100,0.241,0.842,1.74 µM,> 100,3.86,> 100,1.44 µM,> 100 µM,1.95 µM,> 100,,
Cc1cc(S(=O)(=O)Nc2nnc(-c3ccccc3)c(-c3ccccc3)n2)c(SCc2ccccc2)cc1Cl,23.8 µM,75.5,15.2 µM,30.7,21.7,43.3 µM,15 µM,36.8,21.8,53.7,32.8 µM,90.3,24.8,50.3,11.5 µM,52.8 µM,,,20.7 µM,42.1
Cn1c(=O)c2[nH]c(CS(=O)(=O)Cc3nc4c([nH]3)c(=O)n(C)c(=O)n4C)nc2n(C)c1=O,,> 100,,> 100,,> 100 µM,,> 100,,> 100,,> 100,,> 100,,> 100 µM,,> 100,,> 100
CCN(CC)CCCCCCCNc1c2ccc(Cl)cc2nc2ccc(OC)cc12,0.619 µM,3.89,0.66 µM,2,1.43,3.16 µM,0.372 µM,2.32,1.2,2.83,1.03 µM,4.07,1.78,7.55,0.337 µM,1.3 µM,1.22 µM,5.36,1.34 µM,2.77
Cc1ccc2c(=O)c3cccc(CC(=O)O)c3oc2c1C,> 100 µM,> 100,> 100 µM,> 100,> 100,> 100 µM,> 100 µM,> 100,> 100,> 100,> 100 µM,> 100,> 100,> 100,> 100 µM,> 100 µM,> 100 µM,> 100,> 100 µM,> 100
CN(C)c1ccc2c3c(c(=O)oc2c1)CCC3,,> 100,,> 100,,> 100 µM,,> 100,,> 100,,> 100,,> 100,,> 100 µM,,> 100,,> 100
Nc1ccccc1C#C/C=C\C#Cc1ccc(Cl)cc1Cl,0.376 µM,10.6,13.5 µM,37.8,2.41,5.8 µM,1.62 µM,> 100,14.7,35.4,4.42 µM,18.8,13.8,28.7,0.89 µM,30.5 µM,14.4 µM,30.5,14.7 µM,34.4
O=C(NC(=S)Nc1ccc(Cl)cc1)c1ccccc1,> 100 µM,> 100,> 72.9 µM,> 100,> 100,> 100 µM,> 100 µM,> 100,> 100,> 100,> 100 µM,> 100,> 100,> 100,> 100 µM,> 100 µM,> 100 µM,> 100,> 100 µM,> 100
N=C(N)CCCCCCCCC(=N)N,44.6 µM,> 100,20.8 µM,> 100,> 100,> 100 µM,46.4 µM,> 100,41.4,> 100,14.8 µM,> 100,26.4,> 100,31.1 µM,> 100 µM,25.7 µM,> 100,56.7 µM,> 100
CCOC(CN=c1nc(N(C)C)ss1)OCC,,4.33,,> 100,,32.4 µM,,25.4,,1.45,,> 100,,44.1,,8.54 µM,,36.8,,35.5
C[C@]12CCC(=O)C(O)=C1CC[C@@H]1[C@@H]2CC[C@]2(C)C(=O)CC[C@@H]12,,> 100,,> 100,,> 100 µM,,> 100,,> 100,,> 100,,> 100,,> 100 µM,,> 100,,> 100
CCN(CC)CCOc1ccc(/C=C2\CC3C4CC=C5C[C@@H](N6CCCC6)CC[C@]5(C)C4CC[C@]3(C)[C@H]2O)cc1OC (stereo not given in full),1.14 µM,4.77,4.62 µM,34.7,3.86,14.5 µM,2.2 µM,> 21.6,9.06,> 30.2,13.3 µM,47.5,24,> 72.8,2.24 µM,6.34 µM,20.6 µM,> 63.5,1.92 µM,4.23
COc1cc(/C=C/C(=O)c2ccc(Cl)cc2)ccc1OS(=O)(=O)c1ccc(C)cc1,2.46 µM,7.19,16.4 µM,45.2,2.74,8.56 µM,2.76 µM,7.74,2.93,12.2,9.38 µM,37.7,16.7,33.2,2.1 µM,4.77 µM,10 µM,34.8,6.35 µM,23.6
C=C1C(=O)OC2CC3(CO3)C3C(O)C(O)CC3(C)CC12 (stereo not given),,45.9,,> 100,,83.1 µM,,46.7,,27.9,,> 100,,71.7,,> 100 µM,,68.1,,36.7
COc1ccc(/C=C\c2cc(OC)c(OC)c(OC)c2)cc1OCC(=O)Nc1nc2ccc(C(F)(F)F)cc2s1,4.27 µM,> 100,2.51 µM,6.56,1.84,5.91 µM,3.75 µM,> 100,2.89,19.6,2.12 µM,5.8,5.98,> 100,5.48 µM,> 100 µM,4.43 µM,> 100,3.59 µM,> 100
O=C1C=Cc2ccccc2/C1=C/c1[nH]c(=O)[nH]c1O,4.01 µM,> 100,5.8 µM,76.8,1.76,4.64 µM,4.19 µM,> 100,1.3,3.89,20.3 µM,> 100,42.8,> 100,45.2 µM,> 100 µM,10.1 µM,> 100,4.42 µM,> 100
O=C(Nc1ncc(Cc2ccccc2Cl)s1)c1ccc2c(c1)OCCO2,0.36 µM,> 100,0.384 µM,17.5,0.0399,0.22 µM,0.581 µM,> 100,0.261,,0.322 µM,22.2,0.747,> 100,0.479 µM,> 100 µM,0.614 µM,> 94,0.246 µM,14.5
COc1ccc(-c2nc(-c3cn(C)c4ncccc34)cs2)cc1,> 100 µM,> 100,> 100 µM,> 100,2.79,> 100 µM,18.9 µM,> 100,14.9,> 100,11.9 µM,> 100,> 100,> 100,37.1 µM,> 100 µM,> 100 µM,> 100,28.2 µM,> 100
CC1(C)N=C(N)N=C(N)N1c1cc(Cl)ccc1Cl,> 100 µM,> 100,28.3 µM,> 100,> 100,> 100 µM,> 100 µM,> 100,46,> 100,> 100 µM,> 100,> 100,> 100,> 100 µM,> 100 µM,> 100 µM,> 100,> 100 µM,> 100
COc1ccc(-c2cn[nH]c2-c2cc(OC)c(OC)c(OC)c2)cc1N,< 0.01 µM and 0.0347 µM,> 100,< 0.01 µM and 0.0508 µM,> 100,< 0.01,< 0.01 µM and 0.0309 µM,< 0.01 µM and 0.0429 µM,> 100,< 0.01,,< 0.01 µM and 0.0379 µM,> 100,,> 100,< 0.01 µM and 0.0535 µM,30.8 µM and 54.1 µM,< 0.01 µM and 0.0802 µM,> 100,< 0.01 µM and 0.0247 µM,> 100
CC(=O)OC(C)(C)/C=C/C(=O)[C@](C)(O)[C@H]1[C@H](O)C[C@@]2(C)[C@@H]3CC=C4[C@@H](C[C@H](O)C(=O)C4(C)C)[C@]3(C)C(=O)C[C@]12C,,0.423,,1.05,,2.46 µM,,2.78,,< 0.01,,15.2,,13.8,,< 0.01 µM,,2.99,,< 0.01
O=C1CCC2(C=C(Br)C(=O)C(Br)=C2)O1,1.97 µM,6.25,5.44 µM,15.5,4.84,11.3 µM,3.46 µM,> 23,0.31,1.05,16.2 µM,37.3,15,29.7,10.7 µM,46 µM,16.3 µM,35.3,11.8 µM,24.7
O=[N+]([O-])/C=C/c1c[nH]c2ccccc12,15.8 µM,> 100,15.5 µM,32.5,2.15,5.06 µM,13.9 µM,35.5,14.8,28.9,18.4 µM,40,17.8,35.2,1.83 µM,7.7 µM,17.8 µM,37.1,2.35 µM,6.43
O=C(C(Br)Br)C(Br)C(Br)c1ccccc1 (stereo not given),0.536 µM,2.66,11.4 µM,23.6,2.67,8.21 µM,1.82 µM,4.76,1.81,3.48,5.23 µM,72.4,6.6,22.2,1.54 µM,4.36 µM,12.7 µM,33.2,2.5 µM,6.33
O=C(Oc1ccc(CCl)cc1)c1ccccc1,0.0335 µM,0.146,0.269 µM,0.746,0.155,0.299 µM,0.188 µM,0.538,0.154,0.316,0.2 µM,0.472,0.161,0.302,0.0615 µM,0.288 µM,,,0.125 µM,0.348
OCCCCC#Cc1ccccc1C#Cc1ccccc1C(F)(F)F,3.91 µM,17.2,6.16 µM,19,0.847,2.75 µM,2.63 µM,12.9,9.13,22.7,4.2 µM,16.2,14.7,30.8,3.84 µM,26 µM,12.2 µM,26.5,,
O=C1OC(=O)C2C1C1(c3ccccc3)C(c3ccccc3)=C(c3ccccc3)C2(c2ccccc2)S1=O (stereo not given),> 100 µM,> 100,> 100 µM,> 100,> 100,> 100 µM,,,> 100,> 100,> 100 µM,> 100,> 100,> 100,53.1 µM,> 100 µM,> 100 µM,> 100,> 100 µM,> 100
Cc1nc2cccc(NCc3ccc(C(=O)NO)cc3)c2c(=O)n1-c1ccccc1,2.09 µM,> 100,2.7 µM,11.9,1.63,3.28 µM,2.28 µM,> 100,1.29,2.61,1.53 µM,7.16,2.13,6.75,2.39 µM,> 100 µM,2.14 µM,5.38,,
